Tests used:
[1] = toxicological results, single I.P. dose, DL0 and DL50; format: in vivo, mouse; settings: mice
Text: DL0, DL50, single I.P. dose administered to the aforementioned strains of mice.

L1210 U.S.A. = assay: antitumor activity on leukemia L1210 U.S.A., products of examples 33-39, I.P.; format: in vivo, mouse
Protocol: The experiments were always carried out on female mice which were specific pathogen-free (S. P. F.),
either of the line DBA/2JIco
or of the line B6 D2 F1/JIco (first generation hybrids between the lines C57BL/6 and DBA/2).
On the day of the graft (by convention day 0=D0) an inoculum of 1×10^5 tumor cells in a volume of 0.2 ml is administered to each mouse by the intraperitoneal route (I.P.).
This inoculum is prepared by diluting ascites fluid taken from the peritoneum of a donor female mouse in NCTC 109 medium (Eurobio Laboratories, Paris, France), counting of the cells in a MALASSEZ cell under a microscope and adjustment of the concentration to 5×10^5cells […] by means of the same medium.
The tumor line is an American strain of the line L1210.
After the tumor graft, the mice are distributed at random in cages of 5 animals. Subsequently, these cages containing 5 mice are themselves distributed at random into a control group (control) and groups treated with the I.C. products.
The doses of the products of the invention used in the different experiments are expressed in milligrams per kilogram of body weight.
The products to be injected were dissolved in isotonic sodium chloride solution.
2 protocols for treatment were used in the different experiments:
either a single injection on D1, by the intraperitoneal (I.P.) or intravenous (I.V.) route,
or 3 I.P. injections on D1, D5, D9.
In each experiment the animals of the control group received 1 or more injections, depending on the experimental protocol used, by the same route (I.P. or I.V.) of the same volume (0.2 ml/20 g) of the vehicle without the active principle (isotonic sodium chloride solution).
the number and percentage of the total of the mice surviving to D60,
the T/C×100 for the treated groups.
T representing the mean survival time of the mice in the treated group,
C representing the mean survival time of the mice in the control group (controls).

Tumor LEWIS 3LL = assay: "in vivo" activity on Lewis tumor, 20 mg/kg i.p. days 1, 5, 9; design: species or system mouse; settings: for percentage of cured mice: surviving more than 60 days
Protocol: Procedure was under the conditions which have just been described previously with regard to melanoma B16, by injecting the tumor cells, in the proportion of 2×10^6 per mouse, in the volume of 0.2 ml.
(§1) The protocol was identical for the 3 tumors and the 5 compounds of the invention to be tested.
(§2) As regards the experimental series to be treated, each mouse received, at days 1, 5 and 9, intraperitoneally, a dose of 20 mg/kg of the compound to be tested, in the volume of 0.2 ml of neutralized and sterilized olive oil.
(§3) As regards the control series, each mouse received, intraperitoneally, 0.2 ml of neutralized and sterilized olive oil.
(§4) The results are expressed by the relative increase in survival (T/C×100) calculated from the average survival of the treated animals (T) and that of the control animals (C)
(§5) The mice surviving more than 60 days were considered as cured.
(§6) The figures between parentheses indicate the percentage of cured mice.

leucemia L 1210 IGR = assay: "in vivo" activity on leucemia L1210 IGR, 20 mg/kg i.p. days 1, 5, 9; design: species or system mouse; settings: for percentage of cured mice: surviving more than 60 days
Protocol: Female DBA2 mice were used, about 8 weeks old and weighing about 20 g from the IFFA-CREDO center (les Oncins, 69210 Arbresles)
At day "0", each mouse received intraperitoneally an inoculum of […] in a volume of 0.2 ml.
After tumoral graft, the mice were distributed at random into 21 cages of 5 animals, themselves then distributed, by drawing lots, into 6 experimental series. Within these 6 experimental series, there were constituted a control series of 6 cages and 5 experimental series of 3 cages each, and of which the mice were intended to be treated by the compounds of the invention.
as §1, §2, §3, §4, §5, §6

L 1210 USA Tumor = assay: "in vivo" activity on L1210 U.S.A. tumor, 5 mg/kg i.p. days 1, 5, 9; design: species or system mouse
Protocol: The tumor L1210 U.S.A. is more resistant than tumor L1210 IGR.
(§7) The experiments were identical to those described in preceding paragraph 4 but lower doses were used.
There were inoculated into the mice, 10^5 tumor cells of L1210 U.S.A. intraperitoneally in a volume of 0.2 ml.
At days 1, 5 and 9, the compounds of the invention under test were injected intraperitoneally, at a lower dose than that used in the experiment described at 4, that is to say in the proportion of 5 mg/kg.

L 1210 IGR TUMOR = assay: "in vivo" activity on L1210 IGR tumor, 5 mg/kg i.p. days 1, 5, 9; design: species or system mouse
Protocol: as §7
The same protocol was carried out with the tumor L1210 IGR, by inoculating 10^5 tumor cells of L1210 IGR intraperitoneally in the volume of 0.2 ml then, at days 1, 5 and 9, there were injected intraperitoneally 5 mg/kg of each of the compounds to be tested.

melanoma B16 [2] = assay: "in vivo" activity on melanoma B16, 20 mg/kg i.p. days 1, 5, 9; design: species or system mouse; settings: for percentage of cured mice: surviving more than 60 days
Protocol: Female C57 B 1/6 mice were used, about 8 weeks old and weighing about 20 g, from the IFFA-CREDO center.
At day "0", each mouse received intraperitoneally an inoculum of 2×10^6 tumor cells in a volume of 0.5 ml.
After tumoral graft, distribution at random was carried out as indicated above, to obtain a control series of 8 cages and 5 experimental series of 4 cages each, and of which the mice were intended to be treated by the compounds of the invention.
as §1, §2, §3, §4, §5, §6

L 1210 cells = assay: cytotoxic index after 1 h contact, potential "in vivo" activity (TEST N° 2); format: cell-based, mouse
Protocol: The test used is that of W. J. Durkin et al. Cancer Research 1979, 39, 402-407, modified.
All the nitrosoureas were dissolved in 70% ethanol in the proportion of 10 mg/ml.
2--Determination of the potential "in vivo" activity
L 1210 cells, under conditions similar to the preceding protocol, were contacted for 1 hour with a dose of the various products tested corresponding to a cytotoxic index equal to 20%. After this time, the cells were placed in culture medium not containing nitrosoureas and incubated at 37° C. After 48 hours, the cytotoxic index was determined.

colon carcinoma C38 [3] = assay: activity on colon carcinoma C38 implanted subcutaneously, I.P. days 2 and 9; format: in vivo, mouse; settings: I.P.
Protocol: A tumor fragment is implanted on day 0 in female B6 D2 F1 mice (19-22 g). The treatment with all of the products is administered by the I.P. route on days 2 and 9 (which is a delayed treatment). The weight of the tumors is calculated on day 20.

melanoma B16 [4] = assay: activity toward melanoma B16 implanted subcutaneously, I.V. route; format: in vivo, mouse; settings: 20 mg/kg/inj. days 3, 7, 11
Protocol: The activity of the substances of the invention was also tested by administering the said substances of the invention by the I.V. route. 0.5 ml of an homogenate of the tumor (1 g/10 ml) is administered to B6C3F1 female mice by the subcutaneous (S.C. route) on day 0. The products of the invention and the substances used for comparison are administered on days 3, 7 and 11 in isotonic solution.
In Table IIA below the results are presented relating to the activity of the substance CI. 1675 administered by the I.V. route on the growth of the melanoma B16 implanted subcutaneously, in comparison with carmustine BCNU marketed under the name of BiCNU®.
In Table IIA below and in the subsequent tables, T represents the mean weight (or median) of the tumors in the treated mice, C represents the mean weight (or median) of the tumors in the control, untreated mice and the ratio T/C% corresponds to T/C×100.

colon carcinoma C38 [5] = assay: colon carcinoma C38, comparison of I.V. and I.P. routes, treatment days 8, 12, 16; format: in vivo, mouse; design: key to Median wt. of the tumor D20 / Median wt. of the tumor D27: median tumor weight in mg; settings: I.P. Route, 20 mg/kg/inj.
Protocol: With a view to verifying the antitumor activity of the product of the invention CI.1671 when it is administered by the I.V. route, another experiment was performed in which this product was administered by the I.P. route and the I.V. route for the purposes of comparison.
This experiment is carried out under particularly difficult conditions, the first day of the treatment corresponding to the eighth day after the implantation of the carcinoma C38, whereas normally the treatment starts on the day of implantation of the tumor (D0) or 1 day after (D1) the implantation of the tumor.
The median weight of the tumors on the first day of treatment (day 8) is about 12 mg (tumors varying from 8 to 40 mg). The animals are treated on days 8, 12 and 16 depending on the different routes indicated. […]

[6] = DBA2, I.P. D1, D5, D9, 3×2.5 mg/kg
[7] = DBA2, I.P. D1, D5, D9, 3×10 mg/kg

Row | SMILES | DL0 [1] [mg/kg] | relative increase in survival (T/C×100) (Tumor LEWIS 3LL) | percentage of cured mice (Tumor LEWIS 3LL) [%] | relative increase in survival (T/C×100) (leucemia L 1210 IGR) | percentage of cured mice (leucemia L 1210 IGR) [%] | Average survival ±2 σm (L 1210 USA Tumor) | Median survival (L 1210 USA Tumor) | T/C × 100 (average survival) (L 1210 USA Tumor) | T/C × 100 (median survival) (L 1210 USA Tumor) | Median survival (L 1210 IGR TUMOR) | T/C × 100 (average survival) (L 1210 IGR TUMOR) | T/C × 100 (median survival) (L 1210 IGR TUMOR) | relative increase in survival (T/C×100) (melanoma B16 [2]) | percentage of cured mice (melanoma B16 [2]) [%] | other results
1 | CO[C@H]1O[C@@H](C)C[C@@H](NC(=O)N(CCCl)N=O)[C@@H]1O [IC. 85-1627, methyl 3-[3-(2-chloroethyl) 3-nitrosoureido] 3,4,6-trideoxyβ-L-xylo-hexopyranoside] | ≥ 40 |  |  |  |  |  |  |  |  |  |  |  |  |  | Number of survivors on D60 (L1210 U.S.A.; DBA2, I.P. D1, 1×20 mg/kg): 3/10; Number of survivors on D60 (L1210 U.S.A.; [6]): 0/10; T/C (L1210 U.S.A.; [6]): 141; Number of survivors at D60 (L1210 U.S.A.; [7]): 6/10; T/C (L1210 U.S.A.; [7]): > 600
2 | CO[C@@H]1C[C@@H](NC(=O)N(CCCl)N=O)[C@H](O)[C@@H](CO)O1 [IC 1184, Methyl 3-[3-(2-chloroethyl) 3-nitrosoureido] 2,3-didesoxy α-D-arabinohexopyranoside] |  | .infin. (The sign 00 indicates that 50% at least of the mice were cured) | 90 | 556 | 47 | 18 ± 1,19 | 17,8 | 209 | 205 | 24 | 378 | 265 | 235 | 15 | 
3 | CO[C@@H]1C[C@@H](NC(=O)N(CCCl)N=O)[C@H](O)[C@@H](CNC(=O)N(CCCl)N=O)O1 [IC 1374, Methyl bis 3,6-[3-(2-chloroethyl) 3-nitrosoureido] 2,3,6-tridesoxy α-D-arabinohexopyranoside] |  | .infin. (The sign 00 indicates that 50% at least of the mice were cured) | 75 | .infin. (The sign 00 indicates that 50% at least of the mice were cured) | 67 | 12,9 ± 0,55 | 13,1 | 150 | 151 | 16,75 | 189 | 185 | 246 | 10 | Average survival ±2 σm (L 1210 IGR TUMOR): 17,1 ± 2,10; CYTOTOXIC INDEX (L 1210 cells; 1 hour contact at dose giving 20% index, read after 48 hours): 71%; POTENTIAL "IN VIVO" ACTION (L 1210 cells; active if cytotoxic index ≥40%): + (if the cytotoxic index was equal to or greater than 40%, the product concerned would be active "in vivo" in the mouse)
4 | CO[C@H]1O[C@H](C)C[C@H](NC(=O)N(CCCl)N=O)[C@H]1O [IC. 85-1590, methyl 3-[3-(2-chloroethyl) 3-nitroso-ureido] 3,4,6-trideoxyα-D-xylo-hexopyranoside] | ≥ 25 |  |  |  |  |  |  |  |  |  |  |  |  |  | 
5 | CN(C)S(=O)(=O)CCNC(=O)N(CCCl)N=O [TCNU, reference compound] |  |  |  |  |  |  |  |  |  |  |  |  |  |  | Number of mice without tumor/total (colon carcinoma C38 [3]; 7.5 mg/kg/inj. days 2 and 9): 2/10; T/C (colon carcinoma C38 [3]; 7.5 mg/kg/inj. days 2 and 9): 65%; Weight of the tumor on day 20 (colon carcinoma C38 [3]; 7.5 mg/kg/inj. days 2 and 9): 266 mg; Number of mice without tumor/total (colon carcinoma C38 [3]; 15 mg/kg/inj. days 2 and 9): 7/10; T/C (colon carcinoma C38 [3]; 15 mg/kg/inj. days 2 and 9): 0%; Weight of the tumor on day 20 (colon carcinoma C38 [3]; 15 mg/kg/inj. days 2 and 9): 0 mg; dead mice (remarks) (colon carcinoma C38 [3]; 30 mg/kg/inj. days 2 and 9): 10
6 | O=NN(CCCl)C(=O)NCCCl [BCNU, (1,3-bis-2-chloroethyl)-1-nitrosourea, reference compound] |  |  |  |  |  |  |  |  |  |  |  |  |  |  | Median weight of the tumor on day 3 (melanoma B16 [4]): 40 mg; Median weight of the tumor on day 30 (melanoma B16 [4]): 2 581 mg; T/C on day 30 (tumor weight) (melanoma B16 [4]): 33,0%; Median wt. of the tumor D20 (colon carcinoma C38 [5]): 196; Median wt. of the tumor D27 (colon carcinoma C38 [5]): 274; Mice without tumor/total D20 (colon carcinoma C38 [5]): 0/8; Mice without tumor/total D27 (colon carcinoma C38 [5]): 0/6; T/C % D20 (colon carcinoma C38 [5]): 34%; T/C % D27 (colon carcinoma C38 [5]): 21%
